Source: PubChem BioAssay (NCI)
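Values below derive from 48-hour exposures of cells grown in 96-well plates, with endpoints linearly interpolated between the two concentrations bracketing the appropriate inhibition level. GI50 is the concentration that inhibits growth by half. TGI: concentration producing complete growth inhibition.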

Legend:
Assay in all cases: growth of human tumour cells (NCI), 48 h
SK-MEL-2 melanoma = tested on: SK-MEL-2 melanoma
786-0 renal = tested on: 786-0 renal
HL-60(TB) leukemia = tested on: HL-60(TB) leukemia
SK-MEL-28 melanoma = tested on: SK-MEL-28 melanoma
MOLT-4 leukemia = tested on: MOLT-4 leukemia
MDA-MB-435 = tested on: MDA-MB-435
HCT-116 colon = tested on: HCT-116 colon
BT-549 breast = tested on: BT-549 breast
M14 melanoma = tested on: M14 melanoma
NCI-H522 lung = tested on: NCI-H522 lung
RPMI-8226 leukemia = tested on: RPMI-8226 leukemia
HOP-62 NSCLC = tested on: HOP-62 NSCLC
CAKI-1 renal = tested on: CAKI-1 renal
UACC-62 melanoma = tested on: UACC-62 melanoma
PC-3 prostate = tested on: PC-3 prostate
HOP-92 NSCLC = tested on: HOP-92 NSCLC
KM12 colon = tested on: KM12 colon
MALME-3M melanoma = tested on: MALME-3M melanoma
HT29 colon = tested on: HT29 colon
OVCAR-4 ovarian = tested on: OVCAR-4 ovarian
SK-OV-3 ovarian = tested on: SK-OV-3 ovarian
SF-268 CNS = tested on: SF-268 CNS
OVCAR-5 ovarian = tested on: OVCAR-5 ovarian
EKVX NSCLC = tested on: EKVX NSCLC
IGROV1 ovarian = tested on: IGROV1 ovarian
UO-31 renal = tested on: UO-31 renal
SN12C renal = tested on: SN12C renal
NCI-H226 lung = tested on: NCI-H226 lung
U251 CNS = tested on: U251 CNS
HS 578T breast = tested on: HS 578T breast
T-47D breast = tested on: T-47D breast
MCF7 breast = tested on: MCF7 breast
CCRF-CEM leukemia = tested on: CCRF-CEM leukemia
SF-295 CNS = tested on: SF-295 CNS
A549 NSCLC = tested on: A549 NSCLC
ACHN renal = tested on: ACHN renal
HCT-15 colon = tested on: HCT-15 colon
OVCAR-8 ovarian = tested on: OVCAR-8 ovarian
OVCAR-3 ovarian = tested on: OVCAR-3 ovarian
SW-620 colon = tested on: SW-620 colon
SR leukemia = tested on: SR leukemia
DU-145 prostate = tested on: DU-145 prostate
SNB-75 CNS = tested on: SNB-75 CNS
NCI-H23 lung = tested on: NCI-H23 lung
HCC-2998 colon = tested on: HCC-2998 colon
NCI/ADR-RES ovarian = tested on: NCI/ADR-RES ovarian
RXF 393 renal = tested on: RXF 393 renal
TK-10 renal = tested on: TK-10 renal
LOX IMVI melanoma = tested on: LOX IMVI melanoma
MDA-MB-231 breast = tested on: MDA-MB-231 breast
NCI-H460 lung = tested on: NCI-H460 lung
K-562 leukemia = tested on: K-562 leukemia
UACC-257 melanoma = tested on: UACC-257 melanoma
SK-MEL-5 melanoma = tested on: SK-MEL-5 melanoma
SNB-19 CNS = tested on: SNB-19 CNS
SF-539 CNS = tested on: SF-539 CNS
A498 renal = tested on: A498 renal
COLO 205 colon = tested on: COLO 205 colon

Structure (SMILES): COc1ccc2c(c1)C(=O)c1c-2n(CCCN2CCOCC2)c(=O)c2ccccc12
- GI50 (SK-MEL-2 melanoma): 14.5 µM
- TGI (SK-MEL-2 melanoma): 63.4 µM
- GI50 (786-0 renal): 2.38 µM
- TGI (786-0 renal): 9.46 µM
- GI50 (HL-60(TB) leukemia): 4.59 µM
- TGI (HL-60(TB) leukemia): > 100 µM
- GI50 (SK-MEL-28 melanoma): 11.2 µM
- TGI (SK-MEL-28 melanoma): > 100 µM
- GI50 (MOLT-4 leukemia): 1.47 µM
- TGI (MOLT-4 leukemia): > 100 µM
- GI50 (MDA-MB-435): 4.54 µM
- TGI (MDA-MB-435): > 100 µM
- GI50 (HCT-116 colon): 1.66 µM
- TGI (HCT-116 colon): 4.54 µM
- GI50 (BT-549 breast): 2.55 µM
- TGI (BT-549 breast): 13.6 µM
- GI50 (M14 melanoma): 2.85 µM
- TGI (M14 melanoma): 7.87 µM
- GI50 (NCI-H522 lung): 1.52 µM
- TGI (NCI-H522 lung): 13.9 µM
- GI50 (RPMI-8226 leukemia): 1.35 µM
- TGI (RPMI-8226 leukemia): 5.59 µM
- GI50 (HOP-62 NSCLC): 1.7 µM
- TGI (HOP-62 NSCLC): 6.16 µM
- GI50 (CAKI-1 renal): 1.79 µM
- TGI (CAKI-1 renal): 8.07 µM
- GI50 (UACC-62 melanoma): 1.76 µM
- TGI (UACC-62 melanoma): 5.87 µM
- GI50 (PC-3 prostate): 8.67 µM
- TGI (PC-3 prostate): > 100 µM
- GI50 (HOP-92 NSCLC): 8.39 µM
- TGI (HOP-92 NSCLC): > 57.5 µM
- GI50 (KM12 colon): 3.64 µM
- TGI (KM12 colon): 42.5 µM
- GI50 (MALME-3M melanoma): 3.44 µM
- TGI (MALME-3M melanoma): 18.7 µM
- GI50 (HT29 colon): 2.19 µM
- TGI (HT29 colon): > 45 µM
- GI50 (OVCAR-4 ovarian): 4.57 µM
- TGI (OVCAR-4 ovarian): > 100 µM
- GI50 (SK-OV-3 ovarian): 3.27 µM
- TGI (SK-OV-3 ovarian): 12.1 µM
- GI50 (SF-268 CNS): 2.7 µM
- TGI (SF-268 CNS): > 43.9 µM
- GI50 (OVCAR-5 ovarian): 6.18 µM
- TGI (OVCAR-5 ovarian): > 100 µM
- GI50 (EKVX NSCLC): 4.52 µM
- TGI (EKVX NSCLC): > 89.2 µM
- GI50 (IGROV1 ovarian): 1.87 µM
- TGI (IGROV1 ovarian): > 100 µM
- GI50 (UO-31 renal): 0.799 µM
- TGI (UO-31 renal): 3.26 µM
- GI50 (SN12C renal): 4.25 µM
- TGI (SN12C renal): > 100 µM
- GI50 (NCI-H226 lung): 2.59 µM
- TGI (NCI-H226 lung): 7.57 µM
- GI50 (U251 CNS): 2.01 µM
- TGI (U251 CNS): 11.6 µM
- GI50 (HS 578T breast): 8.95 µM
- TGI (HS 578T breast): > 100 µM
- GI50 (T-47D breast): 1.55 µM
- TGI (T-47D breast): 7.41 µM
- GI50 (MCF7 breast): 0.291 µM
- TGI (MCF7 breast): 13 µM
- GI50 (CCRF-CEM leukemia): 1.19 µM
- TGI (CCRF-CEM leukemia): > 20.7 µM
- GI50 (SF-295 CNS): 1.35 µM
- TGI (SF-295 CNS): 9.71 µM
- GI50 (A549 NSCLC): 1.97 µM
- TGI (A549 NSCLC): 8.41 µM
- GI50 (ACHN renal): 1.69 µM
- TGI (ACHN renal): 4.07 µM
- GI50 (HCT-15 colon): 3.64 µM
- TGI (HCT-15 colon): > 100 µM
- GI50 (OVCAR-8 ovarian): 3.45 µM
- TGI (OVCAR-8 ovarian): > 100 µM
- GI50 (OVCAR-3 ovarian): 2.94 µM
- TGI (OVCAR-3 ovarian): 12.2 µM
- GI50 (SW-620 colon): 2.31 µM
- TGI (SW-620 colon): > 100 µM
- GI50 (SR leukemia): 0.579 µM
- TGI (SR leukemia): > 32.6 µM
- GI50 (DU-145 prostate): 2.39 µM
- TGI (DU-145 prostate): 10.2 µM
- GI50 (SNB-75 CNS): 3.86 µM
- TGI (SNB-75 CNS): 23.1 µM
- GI50 (NCI-H23 lung): 2.94 µM
- TGI (NCI-H23 lung): 10.1 µM
- GI50 (HCC-2998 colon): 3.08 µM
- TGI (HCC-2998 colon): 20.4 µM
- GI50 (NCI/ADR-RES ovarian): 3.8 µM
- TGI (NCI/ADR-RES ovarian): > 93.1 µM
- GI50 (RXF 393 renal): 3.22 µM
- TGI (RXF 393 renal): > 21.6 µM
- GI50 (TK-10 renal): 4.62 µM
- TGI (TK-10 renal): 57.2 µM
- GI50 (LOX IMVI melanoma): 1.45 µM
- TGI (LOX IMVI melanoma): 3.36 µM
- GI50 (MDA-MB-231 breast): 15.4 µM
- TGI (MDA-MB-231 breast): > 100 µM
- GI50 (NCI-H460 lung): 0.561 µM
- TGI (NCI-H460 lung): 3.58 µM
- GI50 (K-562 leukemia): 4.47 µM
- TGI (K-562 leukemia): > 100 µM
- GI50 (UACC-257 melanoma): 4.46 µM
- TGI (UACC-257 melanoma): > 31.5 µM
- GI50 (SK-MEL-5 melanoma): 1.37 µM
- TGI (SK-MEL-5 melanoma): 2.68 µM
- GI50 (SNB-19 CNS): 2.65 µM
- TGI (SNB-19 CNS): 30.9 µM
- GI50 (SF-539 CNS): 2.17 µM
- TGI (SF-539 CNS): 5.33 µM
- GI50 (A498 renal): 1.87 µM
- TGI (A498 renal): 5.48 µM
- GI50 (COLO 205 colon): 2.81 µM
- TGI (COLO 205 colon): > 41 µM
